Assay results reported in ChEMBL document CHEMBL4811282, “Synthesis and biological evaluation of novel 2-alkoxycarbonylallylester phosphonium derivatives as potential anticancer agents” (Bioorg Med Chem Lett, 2021).
Active and inactive are the calls of the source. The rule behind the calls is not given here.

Columns and labels:
4T1 [1] = experiment: Induction of mitochondrial stress in mouse 4T1 cells assessed as decrease in ATP production in presence of oligomycin/FCCP/antimycin A/rotenone by seahorse XFe96 analyser based assay; type: functional, cell-based; settings: dose 0.625-10 µM
MDA-MB-231 [2] = experiment: Antiproliferative activity against human MDA-MB-231 cells assessed as inhibition of cell proliferation measured by MTT assay; type: functional, cell-based
MDA-MB-231 [3] = experiment: Antiproliferative activity against human MDA-MB-231 cells assessed as inhibition of cell proliferation measured by SRB assay; type: functional, cell-based
MDA-MB-231 [4] = experiment: Induction of mitochondrial stress in human MDA-MB-231 cells assessed as decrease in mitochondrial respiration at 0.625 to 10 uM in presence of oligomycin/FCCP/antimycin A/rotenone by seahorse XFe96 analyser based assay; type: functional, cell-based; settings: dose 0.625-10 µM
4T1 [5] = experiment: Antiproliferative activity against mouse 4T1 cells assessed as inhibition of cell proliferation measured by MTT assay; type: functional, cell-based
MIA PaCa-2 [6] = experiment: Antiproliferative activity against human MIA PaCa-2 cells assessed as inhibition of cell proliferation measured by SRB assay; type: functional, cell-based
MCF7 [7] = experiment: Antiproliferative activity against human MCF7 cells assessed as inhibition of cell proliferation measured by MTT assay; type: functional, cell-based
MDA-MB-231 [8] = experiment: Induction of mitochondrial stress in human MDA-MB-231 cells assessed as proton leak across mitochondrial inner membrane in presence of oligomycin/FCCP/antimycin A/rotenone by seahorse XFe96 analyser based assay; type: functional, cell-based; settings: dose 0.3125-10 µM
4T1 [9] = experiment: Induction of mitochondrial stress in mouse 4T1 cells assessed as proton leak across mitochondrial inner membrane in presence of oligomycin/FCCP/antimycin A/rotenone by seahorse XFe96 analyser based assay; type: functional, cell-based; settings: dose 0.625-10 µM
4T1 [10] = experiment: Induction of mitochondrial stress in mouse 4T1 cells assessed as effect on spare respiratory capacity at 5 to 10 uM in presence of oligomycin/FCCP/antimycin A/rotenone by seahorse XFe96 analyser based assay; type: functional, cell-based; settings: dose 5-10 µM
MDA-MB-231 [11] = experiment: Induction of mitochondrial stress in human MDA-MB-231 cells assessed as decrease in ATP production at 0.3125 to 10 uM in presence of oligomycin/FCCP/antimycin A/rotenone by seahorse XFe96 analyser based assay; type: functional, cell-based; settings: dose 0.3125-10 µM
4T1 [12] = experiment: Induction of mitochondrial stress in mouse 4T1 cells assessed as decrease in mitochondrial respiration in presence of oligomycin/FCCP/antimycin A/rotenone by seahorse XFe96 analyser based assay; type: functional, cell-based; settings: dose 0.625-10 µM
WiDr [13] = experiment: Antiproliferative activity against human WiDr cells assessed as inhibition of cell proliferation measured by MTT assay; type: functional, cell-based
WiDr [14] = experiment: Antiproliferative activity against human WiDr cells assessed as inhibition of cell proliferation measured by SRB assay; type: functional, cell-based
MIA PaCa-2 [15] = experiment: Antiproliferative activity against human MIA PaCa-2 cells assessed as inhibition of cell proliferation measured by MTT assay; type: functional, cell-based
MCF7 [16] = experiment: Antiproliferative activity against human MCF7 cells assessed as inhibition of cell proliferation measured by SRB assay; type: functional, cell-based
[17] = Cytotoxicity against human HDFa cells assessed as inhibition of cell proliferation; type: cell-based
[18] = Antiproliferative activity against mouse 67NR cells assessed as inhibition of cell proliferation measured by SRB assay; type: functional, cell-based
4T1 [19] = experiment: Antiproliferative activity against mouse 4T1 cells assessed as inhibition of cell proliferation measured by SRB assay; type: functional, cell-based
[20] = Antiproliferative activity against mouse 67NR cells assessed as inhibition of cell proliferation measured by MTT assay; type: functional, cell-based
[21] = Toxicity against CD-1 mouse assessed as changes in body weight at 10 mg/kg for 6 days per week measured after 14 days; type: organism-based; settings: in vivo
[22] = Toxicity against CD-1 mouse assessed as changes in grooming pattern at 10 mg/kg for 6 days per week measured after 14 days; type: organism-based; settings: in vivo, 336 h, time 14 day

| SMILES | IC50 (MDA-MB-231 [2]) [nM] | IC50 (4T1 [5]) [nM] | IC50 (MCF7 [7]) [nM] | IC50 (MIA PaCa-2 [15]) [nM] | IC50 (WiDr [13]) [nM] | IC50 [20] [nM] | other results |
| --- | --- | --- | --- | --- | --- | --- | --- |
| COC(=O)/C(=C/c1ccccc1)C[P+](c1ccc(OC)cc1)(c1ccc(OC)cc1)c1ccc(OC)cc1 | 9270 | 7200 | 2670 | 4590 | 2740 | 4870 |  |
| C=C(C[P+](c1ccccc1)(c1ccccc1)c1ccccc1)C(=O)OC | 28900 | 14800 | 19900 | 27400 | 7740 | 58400 |  |
| C=C(C[P+](c1ccc(OC)cc1)(c1ccc(OC)cc1)c1ccc(OC)cc1)C(=O)OC(C)(C)C | 2690 | 1080 | 980 | 1390 | 810 | 2170 |  |
| C=C(C[P+](c1ccccc1)(c1ccccc1)c1ccccc1)C(=O)N(C)C | > 100000 | > 100000 | > 100000 | > 100000 | 81200 | > 100000 |  |
| C=C(C[P+](c1ccc(C)cc1)(c1ccc(C)cc1)c1ccc(C)cc1)C(=O)OC | 3790 | 1780 | 2430 | 2660 | 1480 | 5340 |  |
| COC(=O)/C(=C/c1ccc(Cl)cc1)C[P+](c1ccc(OC)cc1)(c1ccc(OC)cc1)c1ccc(OC)cc1 | 3010 | 980 | 1370 | 590 | 1320 |  |  |
| COC(=O)/C(=C/c1ccc(C#N)cc1)C[P+](c1ccc(OC)cc1)(c1ccc(OC)cc1)c1ccc(OC)cc1 | 12500 | 20400 | 4490 | 7860 | 4870 | > 100000 |  |
| COC(=O)/C(=C/c1ccc(F)cc1)C[P+](c1ccc(OC)cc1)(c1ccc(OC)cc1)c1ccc(OC)cc1 | 7410 | 4570 | 1420 | 1290 | 2140 | 5140 |  |
| C=C(C[P+](c1ccc(F)cc1)(c1ccc(F)cc1)c1ccc(F)cc1)C(=O)OC | 91100 | 61900 | 47000 | 100000 | 19000 | 73900 |  |
| COC(=O)/C(=C/c1ccc(C)cc1)C[P+](c1ccc(OC)cc1)(c1ccc(OC)cc1)c1ccc(OC)cc1 | 9790 | 5230 | 7470 | 340 | 2580 | 2780 |  |
| COC(=O)/C(=C/c1ccc(OC)cc1)C[P+](c1ccc(OC)cc1)(c1ccc(OC)cc1)c1ccc(OC)cc1.[Br-] | 3700 | 3360 | 1400 | 1370 | 1140 | 4590 | IC50 (MDA-MB-231 [3]): 2190 nM; IC50 (MIA PaCa-2 [6]): 310 nM; IC50 (WiDr [14]): 760 nM; Activity [21]: Non-Toxic; IC50 (MCF7 [16]): 170 nM; IC50 [17]: 23900 nM; IC50 [18]: 2560 nM; IC50 (4T1 [19]): 1830 nM; Activity [22]: Non-Toxic |

Continued by falling IC50 (MDA-MB-231 [2]), values first:

| IC50 (MDA-MB-231 [2]) [nM] | IC50 (4T1 [5]) [nM] | IC50 (MCF7 [7]) [nM] | IC50 (MIA PaCa-2 [15]) [nM] | SMILES | IC50 (WiDr [13]) [nM] | IC50 [20] [nM] | other results |
| --- | --- | --- | --- | --- | --- | --- | --- |
| 8290 | 4730 | 8830 | 5590 | COC(=O)/C(=C/c1ccc([N+](=O)[O-])cc1)C[P+](c1ccc(OC)cc1)(c1ccc(OC)cc1)c1ccc(OC)cc1 | 5950 | 28700 |  |
| 4870 | 1850 | 2780 | 3600 | C=C(C[P+](c1ccc(OC)cc1)(c1ccc(OC)cc1)c1ccc(OC)cc1)C(=O)OC | 1620 | 10600 |  |
| 2880 | 2760 | 1990 | 2870 | C=C(C[P+](c1ccccc1)(c1ccccc1)c1ccccc1)C(=O)OC(C)(C)C | 2080 | 7570 |  |
| 2100 | 860 | 640 | 360 | COc1ccc([P+](C/C(=C\c2ccc(Br)cc2)C(=O)OC(C)(C)C)(c2ccc(OC)cc2)c2ccc(OC)cc2)cc1 | 950 | 620 | Activity (4T1 [1]): Dose-Dependent Effect; IC50 (MDA-MB-231 [3]): 580 nM; Activity (MDA-MB-231 [4]): Active; IC50 (MIA PaCa-2 [6]): 200 nM; Activity (MDA-MB-231 [8]): Dose-Dependent Effect; Activity (4T1 [9]): Dose-Dependent Effect; Activity (4T1 [10]): Active; Activity (MDA-MB-231 [11]): Active; Activity (4T1 [12]): Dose-Dependent Effect; IC50 (WiDr [14]): 140 nM; IC50 (MCF7 [16]): 63 nM; IC50 [17]: 5500 nM; IC50 [18]: 470 nM; IC50 (4T1 [19]): 500 nM |
| 1910 | 1210 | 1240 | 730 | COC(=O)/C(=C/c1ccc(Br)cc1)C[P+](c1ccc(OC)cc1)(c1ccc(OC)cc1)c1ccc(OC)cc1 | 900 | 2900 | IC50 (MDA-MB-231 [3]): 940 nM; IC50 (MIA PaCa-2 [6]): 290 nM; IC50 (WiDr [14]): 810 nM; IC50 (MCF7 [16]): 170 nM; IC50 [18]: 1780 nM; IC50 (4T1 [19]): 1250 nM |
